“Also recorded” adds a separate entry of the source.
Legend:
[1] = system: MDA-MB-231 cells; test: DNA fragments in the cytoplasmic fraction detected by capillary electrophoresis (fragment analyzer); type: cell-based; conditions: MDA-MB-231 cells treated 24 h with 50 or 100 nM staurosporine, compared to untreated cells
Procedure: MDA-MB-231 cells were inoculated in 6 [MUT] at an amount of 3 million cells per 35 ml of DMEM high glucose medium (10% FCS, P/S). The next day, the MDA-MB-231 cells were treated with 50 nM and 100 nM staurosporine. The medium of the 2 untreated [MUT] was changed. After 24 h of treatment, the MDA-MB-231 cells were lysed with 2 ml of lysis buffer added to the [MUT] for 15 min at ambient temperature, then 2 ml were transferred into a tube and centrifuged at 2000 g for 5 min. The supernatant was then treated with RNaseA (20 μg/ml) and then with Proteinase K (used at 100 ug/ml), and placed at 70° C. for 15 min. The lysis buffer is a mixture of 50 mM 4-(2-hydroxyethyl)-1-piperazineethanesulfonic acid, 5 mM ethylenediaminetetraacetic acid, 150 mM sodium chloride, and 50 μg/ml digitonin. 1/10 volume of sodium acetate (NaAc) (3 M, pH 5.2) was then added. DNA was precipitated with 1 volume of isopropanol. The samples were left at ambient temperature for 15 min and then centrifuged at 20 000 g for 20 min at +4° C. The supernatant was aspirated and the pellet was washed with 75% ethanol. The pellet was dried and then resuspended in 30 μl of TE at pH 8 and analyzed in a fragment analyzer.

[2] = system: MOLM14 cells; test: Annexin V/propidium iodide labeling, flow cytometry, percentage of apoptotic cells; type: cell-based; conditions: MOLM14 cells treated 16 h with 0-10 μM etoposide; no plateau with the PCR method
Procedure: The cells are washed with PBS then resuspended in 1× binding buffer at a concentration of 1×10^6 cells/ml. 10 μl of Annexin V Pacific Blue and 10 μl of propidium iodide (Biolegend kit) are added to 200 μl of this cell suspension, which is then incubated for 15 minutes in darkness and at ambient temperature. After centrifugation at 300 g for 5 min, the supernatant is gently aspirated and 500 μl of 1× binding buffer are added.
These cells are then used in flow cytometry for determining the effect of the treatment and the number of cells in apoptosis. These cells are sorted depending on their annexin V and propidium iodide statuses in order to then carry out a PCR.
MOLM14 cells are left untreated (NT) or treated for 16 h with increasing concentrations of etoposide (0-0.62-1.25-2.5-5 or 10 μM).
The cells are labeled using the Pacific Blue™ Annexin V kit (Biolegend) according to the supplier's recommendations and then analyzed by flow cytometry (MACSQuant VYB—Miltenyi Biotec). The percentage of positive apoptotic cells (annexin V) is determined.

| SMILES | DNA fragments, a marker of cell death, in the cytoplasmic fraction [1] | concentration from which the flow cytometry method (annexin V) reaches a detection plateau [2] |
| --- | --- | --- |
| CN[C@@H]1C[C@H]2O[C@@](C)([C@@H]1OC)n1c3ccccc3c3c4c(c5c6ccccc6n2c5c31)C(=O)NC4 [staurosporine] | detected; also recorded: increase in the quantity of DNA fragments | – |
| COc1cc([C@@H]2c3cc4c(cc3[C@@H](O[C@@H]3O[C@@H]5CO[C@@H](C)O[C@H]5[C@H](O)[C@H]3O)[C@H]3COC(=O)[C@H]23)OCO4)cc(OC)c1O [etoposide] | – | ≥ 2.5 µM |
